ChEMBL document CHEMBL3098057, “(E)-Alkenes as replacements of amide bonds: development of novel and potent acyclic CGRP receptor antagonists” (Bioorg Med Chem Lett, 2014)

How the values were obtained:
human MDR1 = assay: Efflux ratio of permeability from basolateral to apical side over apical to basolateral side in pig LLC-PK1 cells expressing human MDR1; format: ADME, cell-based, Sus scrofa
[1] = Apparent passive permeability of the compound in presence of […]; format: physicochemical; conditions: not told
[2] = molecular target: Calcitonin-gene-related peptide receptor, CALCRL/RAMP1 (Homo sapiens, UniProt O60894+Q16602); assay: Displacement of [125I]-hCGRP from human CALCRL/RAMP1 expressed in HEK293 cell membranes
Sequence of Calcitonin-gene-related peptide receptor, CALCRL/RAMP1 (O60894 whole entry): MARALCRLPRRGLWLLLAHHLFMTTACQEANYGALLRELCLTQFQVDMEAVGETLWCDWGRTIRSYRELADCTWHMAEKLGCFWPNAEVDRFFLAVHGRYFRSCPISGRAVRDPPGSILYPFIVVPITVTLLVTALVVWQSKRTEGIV
Sequence of Calcitonin-gene-related peptide receptor, CALCRL/RAMP1 (Q16602 whole entry): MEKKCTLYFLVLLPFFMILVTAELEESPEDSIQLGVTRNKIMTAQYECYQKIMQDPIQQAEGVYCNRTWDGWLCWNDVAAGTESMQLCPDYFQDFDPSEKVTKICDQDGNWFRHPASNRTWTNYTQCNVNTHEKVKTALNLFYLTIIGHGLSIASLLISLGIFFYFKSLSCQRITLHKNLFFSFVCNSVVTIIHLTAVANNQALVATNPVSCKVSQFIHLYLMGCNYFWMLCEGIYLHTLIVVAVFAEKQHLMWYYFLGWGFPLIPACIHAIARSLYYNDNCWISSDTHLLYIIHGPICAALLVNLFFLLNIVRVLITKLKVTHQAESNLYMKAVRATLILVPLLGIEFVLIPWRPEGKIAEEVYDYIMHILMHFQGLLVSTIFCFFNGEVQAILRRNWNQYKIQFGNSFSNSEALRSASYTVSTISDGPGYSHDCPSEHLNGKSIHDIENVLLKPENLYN

[3] = Oral bioavailability in rat at 10 mg/kg; format: ADME, organism-based; conditions: in vivo
[4] = Clearance in rat at 2 mg/kg; format: ADME, organism-based; design: dose 2 mg/kg; conditions: in vivo
[5] = Half life in rat at 2 mg/kg; format: ADME, organism-based; design: dose 2 mg/kg; conditions: in vivo

Compound | efflux ratio (human MDR1) | Papp [1] [×10⁻⁶ cm/s] | Ki [2] [nM] | bioavailability [3] [%] | clearance [4] [mL/min/kg] | half-life [5] [h]
C[C@H](c1cc(F)cc(F)c1)N(Cc1cnc2cc3c(cc2c1)C[C@@]1(C3)C(=O)Nc2ncccc21)C(=O)C(C)(C)C | 1.3 | 20 |  |  |  | 
C[C@H](c1cc(F)cc(F)c1)N(C/C=C/c1ccc2c(c1)C[C@@]1(C2)C(=O)Nc2ncccc21)C(=O)[C@@H]1CCCN1C | 27 | 33 | 3.38 |  |  | 
C[C@H](c1ccccc1)N(C/C=C/c1ccc2c(c1)C[C@@]1(C2)C(=O)Nc2ncccc21)C(=O)C(C)(C)C |  |  | 0.35 |  |  | 
CC(C)(C)C(=O)N(C/C=C/c1ccc2c(c1)C[C@@]1(C2)C(=O)Nc2ncccc21)[C@@H]1CCc2ccccc21 |  |  | 0.2 |  |  | 
CC(C)C(=O)N(C/C=C/c1ccc2c(c1)C[C@@]1(C2)C(=O)Nc2ncccc21)[C@H](C)c1cc(F)cc(F)c1 |  |  | 1.27 |  |  | 
C[C@H](c1cc(F)cc(F)c1)N(C/C=C/c1ccc2c(c1)C[C@@]1(C2)C(=O)Nc2ncccc21)C(=O)C1CCOCC1 | 1.9 | 32 | 0.09 |  |  | 
Cc1cc(C(=O)N(C/C=C/c2ccc3c(c2)C[C@@]2(C3)C(=O)Nc3ncccc32)[C@H](C)c2cc(F)cc(F)c2)n(C)n1 | 2 | 17 | 0.45 |  |  | 
C[C@H](c1cc(F)cc(F)c1)N(C/C=C/c1cnc2c(c1)C[C@@]1(C2)C(=O)Nc2ncccc21)C(=O)C(C)(C)C | 1.4 | 27 | 0.04 | 51 | 23 | 11
C[C@H](c1ccccc1)N(C/C=C/c1cnc2c(c1)C[C@@]1(C2)C(=O)Nc2ncccc21)C(=O)C(C)(C)C |  |  | 0.22 |  |  | 
CC(C)(C)C(=O)N(C/C=C/c1cnc2c(c1)C[C@@]1(C2)C(=O)Nc2ncccc21)[C@@H]1CCc2ccccc21 | 3.1 | 24 | 0.08 |  |  | 
CC(C)(C)C(=O)N(C/C=C/c1cnc2c(c1)C[C@@]1(C2)C(=O)Nc2ncccc21)Cc1cc(F)cc(F)c1 | 0.9 | 23 | 0.93 |  |  | 
CC(C)(C)C(=O)N(C/C=C/c1cnc2c(c1)C[C@@]1(C2)C(=O)Nc2ncccc21)C1CCCCCC1 | 0.8 | 20 | 0.89 |  |  | 
Cc1ccc([C@@H](C)N(C/C=C/c2cnc3c(c2)C[C@@]2(C3)C(=O)Nc3ncccc32)C(=O)C(C)(C)C)cc1F | 1.1 | 18 |  |  |  | 
C[C@H](c1ccc(Cl)cc1)N(C/C=C/c1cnc2c(c1)C[C@@]1(C2)C(=O)Nc2ncccc21)C(=O)C(C)(C)C | 1 | 17 | 0.31 |  |  | 
C[C@H](c1cc(F)cc(F)c1)N(C/C=C/c1cnc2c(c1)C[C@@]1(C2)C(=O)Nc2ncccc21)C(=O)C1(C(F)(F)F)CC1 | 2 | 21 |  |  |  | 
Cc1ccsc1C(=O)N(C/C=C/c1cnc2c(c1)C[C@@]1(C2)C(=O)Nc2ncccc21)[C@H](C)c1cc(F)cc(F)c1 | 1.5 | 17 | 0.13 |  |  | 
C[C@H](c1cc(F)cc(F)c1)N(C/C=C/c1cnc2c(c1)C[C@@]1(C2)C(=O)Nc2ncccc21)C(=O)c1nccn1C | 19 | 28 | 0.16 |  |  | 
Cc1noc(C)c1C(=O)N(C/C=C/c1cnc2c(c1)C[C@@]1(C2)C(=O)Nc2ncccc21)[C@H](C)c1cc(F)cc(F)c1 | 16 | 29 | 2.39 |  |  | 
CC(C)(C)C(=O)N(CC#Cc1ccc2c(c1)C[C@@]1(C2)C(=O)Nc2ncccc21)[C@@H]1CCc2ccccc21 |  |  | 0.2 |  |  | 
C[C@H](c1ccccc1)N(CC#Cc1ccc2c(c1)C[C@@]1(C2)C(=O)Nc2ncccc21)C(=O)C(C)(C)C |  |  | 0.82 |  |  | 
CC(C)(C)C(=O)N(CC#Cc1cnc2c(c1)C[C@@]1(C2)C(=O)Nc2ncccc21)[C@@H]1CCc2ccccc21 | 1.1 | 26 | 0.05 |  |  | 
C[C@H](c1ccccc1)N(CC#Cc1cnc2c(c1)C[C@@]1(C2)C(=O)Nc2ncccc21)C(=O)C(C)(C)C | 1.3 | 33 | 0.13 |  |  | 
CC(C)(C)C(=O)N(CCCc1ccc2c(c1)C[C@@]1(C2)C(=O)Nc2ncccc21)[C@@H]1CCc2ccccc21 |  |  | 2.06 |  |  | 
C[C@H](c1ccccc1)N(CCCc1ccc2c(c1)C[C@@]1(C2)C(=O)Nc2ncccc21)C(=O)C(C)(C)C |  |  | 7.6 |  |  | 
C[C@H](c1cc(F)cc(F)c1)N(CCCc1cnc2c(c1)C[C@@]1(C2)C(=O)Nc2ncccc21)C(=O)C(C)(C)C | 3.1 | 26 | 0.22 |  |  | 
CC(C)(C)C(=O)N(CCCc1cnc2c(c1)C[C@@]1(C2)C(=O)Nc2ncccc21)[C@@H]1CCc2ccccc21 | 2.6 | 33 | 0.61 |  |  | 
C[C@H](c1ccccc1)N(CCCc1cnc2c(c1)C[C@@]1(C2)C(=O)Nc2ncccc21)C(=O)C(C)(C)C | 3.2 | 39 | 1.35 |  |  | 
C[C@H](c1cc(F)cc(F)c1)N(CC(=O)Nc1ccc2c(c1)C[C@@]1(C2)C(=O)Nc2ncccc21)C(=O)C(C)(C)C | 3.2 | 26 |  |  | 11 | 1
C[C@H](c1cc(F)cc(F)c1)N(C/C=C/c1ccc2c(c1)C[C@@]1(C2)C(=O)Nc2ncccc21)C(=O)C(C)(C)C |  |  | 0.16 |  |  | 
C[C@H](c1cc(F)cc(F)c1)N(CC(=O)Nc1ccc2c(c1)C[C@@]1(C2)C(=O)NC(=O)N1C)C(=O)C(C)(C)C | 8.8 | 25 |  |  |  | 
